Data on eleven compounds can be found in patent US8927500B2, “Peptidomimetic macrocycles” (Aileron Therapeutics, Inc., priority 2012, dated 2015).

As a reminder, the Ki is the dissociation constant of the complex between target and ligand, obtained from inhibition or displacement. In general, IC50 refers to the point on the concentration scale where inhibition reaches its midpoint.

Read-outs that look alike come from different tables or passages of the source. Where a SMILES comes first, the peptide text is derived from it. Bridges are numbered along the chain shown (N, C = ends). [ ]: non-standard residue; d: D form. The star is where a group is joined. 5TAMRA = CN(C)c1ccc2c(c1)Oc1cc(N(C)C)ccc1C21OC(=O)c2cc(C(=O)*)ccc21; Phe(4-guanidino) = N=C(N)Nc1ccc(C[C@H](N)C(=O)O)cc1; dPhe(4-CF3) = N[C@H](Cc1ccc(C(F)(F)F)cc1)C(=O)O; pY = N[C@@H](Cc1ccc(OP(=O)(O)O)cc1)C(=O)O; R8 = C=CCCCCCC[C@@](C)(N)C(=O)O; Cit = NC(=O)NCCC[C@H](N)C(=O)O; Cba = N[C@@H](CC1CCC1)C(=O)O; R5 = C=CCCC[C@@](C)(N)C(=O)O; S5 = C=CCCC[C@](C)(N)C(=O)O; Aib = CC(C)(N)C(=O)O; βAla = NCCC(=O)O Bounds are passed on as bounds.

Experiment [1] deals with T1, MDMX (Homo sapiens, UniProt O15151).
T1 sequence (O15151 1-125): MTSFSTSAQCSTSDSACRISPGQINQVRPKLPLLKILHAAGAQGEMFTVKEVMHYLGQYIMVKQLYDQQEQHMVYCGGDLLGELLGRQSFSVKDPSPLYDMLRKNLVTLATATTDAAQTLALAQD
As to the kind of experiment: Competitive fluorescence polarization assay for MDMX. The format is binding. As to conditions: competitive FP assay; for IC50: read-out: IC50 (MDMX).

For experiment [2], the target named is MDM2 (Homo sapiens, UniProt Q00987). As to the kind of experiment: Competitive fluorescence polarization assay for MDM2. The format is binding. To be noted: competitive FP assay, MDM2; for IC50: read-out: IC50 (MDM2). (In general: Fluorescence polarisation rises when a labelled molecule tumbles more slowly, as on binding a larger partner.)
Chain of MDM2 (Q00987 1-125): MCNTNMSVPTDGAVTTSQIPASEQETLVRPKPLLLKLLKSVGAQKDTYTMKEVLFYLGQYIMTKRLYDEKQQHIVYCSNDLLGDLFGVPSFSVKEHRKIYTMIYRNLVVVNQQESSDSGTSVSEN

As for `CC(=O)N[C@@H](CC(C)C)C(=O)N[C@H](C(=O)N[C@@H](Cc1ccccc1)C(=O)N[C@]1(C)CCCCCCC=CCCC[C@@](C)(C(=O)N[C@@H](C)C(=O)N[C@@H](C)C(=O)N[C@@H](C)C(=O)N[C@@H](C)C(=O)N[C@@H](C)C(=O)N[C@H](C)C(N)=O)NC(=O)[C@H](CC(C)C)NC(=O)[C@H](CCC(N)=O)NC(=O)[C@H](C)NC(=O)[C@H](Cc2c[nH]c3ccccc23)NC(=O)[C@H](Cc2ccc(O)cc2)NC(=O)[C@H](Cc2ccc(NC(=N)N)cc2)NC1=O)[C@@H](C)O` [compound 603] (Ac-LTF[R8][Phe(4-guanidino)]YWAQL[S5]AAAAA[dA]-NH2; staple 4-11), the inhibitory constant (Ki) in experiment [1] (Ki (MDMX)) and in experiment [2] (Ki (MDM2)) was less than 0.01 µM in each case.
Turning to `CC(=O)N[C@@H](CC(C)C)C(=O)N[C@H](C(=O)N[C@@H](Cc1ccccc1)C(=O)N[C@]1(C)CCCCCCC=CCCC[C@@](C)(C(=O)N[C@@H](C)C(=O)N[C@@H](C)C(=O)N[C@@H](C)C(=O)N[C@@H](C)C(=O)N[C@@H](C)C(=O)N[C@H](C)C(N)=O)NC(=O)[C@H](CC(C)C)NC(=O)[C@H](CC(C)C)NC(=O)[C@H](C)NC(=O)[C@H](Cc2c[nH]c3ccccc23)NC(=O)[C@H](Cc2ccc(O)cc2)NC(=O)[C@H](CCC(=O)O)NC1=O)[C@@H](C)O` [compound 608] (Ac-LTF[R8]EYWALL[S5]AAAAA[dA]-NH2; staple 4-11), the Ki in experiment [1] (read-out: Ki (MDMX)) was 0.01 to 0.1 µM; in experiment [2] (read-out: Ki (MDM2)), less than 0.01 µM.
For `CC(=O)N[C@@H](CC(C)C)C(=O)N[C@H](C(=O)N[C@@H](Cc1ccccc1)C(=O)N[C@]1(C)CCCCCCC=CCCC[C@@](C)(C(=O)N[C@@H](C)C(=O)N[C@@H](C)C(=O)N[C@@H](C)C(=O)N[C@@H](C)C(=O)N[C@@H](C)C(=O)N[C@H](C)C(N)=O)NC(=O)[C@H](CC(C)C)NC(=O)C(C)(C)NC(=O)[C@H](C)NC(=O)[C@H](Cc2c[nH]c3ccccc23)NC(=O)[C@H](Cc2ccc(O)cc2)NC(=O)[C@H](CCC(=O)O)NC1=O)[C@@H](C)O` [compound 609] (Ac-LTF[R8]EYWA[Aib]L[S5]AAAAA[dA]-NH2; staple 4-11), in that order: 0.01 to 0.1 µM and less than 0.01 µM.
For `CC(=O)N[C@@H](CC(C)C)C(=O)N[C@H](C(=O)N[C@@H](Cc1ccccc1)C(=O)N[C@]1(C)CCCCCCC=CCCC[C@@](C)(C(=O)N[C@@H](C)C(=O)N[C@@H](C)C(=O)N[C@@H](C)C(=O)N[C@@H](C)C(=O)N[C@@H](C)C(=O)N[C@H](C)C(N)=O)NC(=O)[C@H](CC(C)C)NC(=O)[C@H](CO)NC(=O)[C@H](C)NC(=O)[C@H](Cc2c[nH]c3ccccc23)NC(=O)[C@H](Cc2ccc(O)cc2)NC(=O)[C@H](CCC(=O)O)NC1=O)[C@@H](C)O` [compound 610] (Ac-LTF[R8]EYWASL[S5]AAAAA[dA]-NH2; staple 4-11), the inhibitory constant (Ki) in experiment [1] (read-out: Ki (MDMX)) is 0.01 to 0.1 µM; in experiment [2] (read-out: Ki (MDM2)) it was less than 0.01 µM.
The like results for `CC(=O)N[C@@H](CC(C)C)C(=O)N[C@H](C(=O)N[C@@H](Cc1ccccc1)C(=O)N[C@]1(C)CCCCCCC=CCCC[C@@](C)(C(=O)N[C@@H](C)C(=O)N[C@@H](C)C(=O)N[C@@H](C)C(=O)N[C@@H](C)C(=O)N[C@@H](C)C(=O)N[C@H](C)C(N)=O)NC(=O)[C@H](CC(C)C)NC(=O)[C@H](CC(N)=O)NC(=O)[C@H](C)NC(=O)[C@H](Cc2c[nH]c3ccccc23)NC(=O)[C@H](Cc2ccc(O)cc2)NC(=O)[C@H](CCC(=O)O)NC1=O)[C@@H](C)O` [compound 611] (Ac-LTF[R8]EYWANL[S5]AAAAA[dA]-NH2; staple 4-11) were, in that order, 0.01 to 0.1 µM and less than 0.01 µM.
For `CC(=O)N[C@@H](CC(C)C)C(=O)N[C@H](C(=O)N[C@@H](Cc1ccccc1)C(=O)N[C@]1(C)CCCCCCC=CCCC[C@@](C)(C(=O)N[C@@H](C)C(=O)N[C@@H](C)C(=O)N[C@@H](C)C(=O)N[C@@H](C)C(=O)N[C@@H](C)C(=O)N[C@H](C)C(N)=O)NC(=O)[C@H](CC(C)C)NC(=O)[C@H](CCCNC(N)=O)NC(=O)[C@H](C)NC(=O)[C@H](Cc2c[nH]c3ccccc23)NC(=O)[C@H](Cc2ccc(O)cc2)NC(=O)[C@H](CCC(=O)O)NC1=O)[C@@H](C)O` [compound 612] (Ac-LTF[R8]EYWA[Cit]L[S5]AAAAA[dA]-NH2; staple 4-11), in that order: 0.01 to 0.1 µM and less than 0.01 µM.
For `CC(=O)N[C@@H](CC(C)C)C(=O)N[C@H](C(=O)N[C@@H](Cc1ccccc1)C(=O)N[C@]1(C)CCCCCCC=CCCC[C@@](C)(C(=O)N[C@@H](C)C(=O)N[C@@H](C)C(=O)N[C@@H](C)C(=O)N[C@@H](C)C(=O)N[C@@H](C)C(=O)N[C@H](C)C(N)=O)NC(=O)[C@H](CC(C)C)NC(=O)[C@H](Cc2c[nH]cn2)NC(=O)[C@H](C)NC(=O)[C@H](Cc2c[nH]c3ccccc23)NC(=O)[C@H](Cc2ccc(O)cc2)NC(=O)[C@H](CCC(=O)O)NC1=O)[C@@H](C)O` [compound 613] (Ac-LTF[R8]EYWAHL[S5]AAAAA[dA]-NH2; staple 4-11), in that order: 0.01 to 0.1 µM and less than 0.01 µM.
Turning to `CC(=O)N[C@@H](CC(C)C)C(=O)N[C@H](C(=O)N[C@@H](Cc1ccccc1)C(=O)N[C@]1(C)CCCCCCC=CCCC[C@@](C)(C(=O)N[C@@H](C)C(=O)N[C@@H](C)C(=O)N[C@@H](C)C(=O)N[C@@H](C)C(=O)N[C@@H](C)C(=O)N[C@H](C)C(N)=O)NC(=O)[C@H](CC(C)C)NC(=O)[C@H](CCC(N)=O)NC(=O)[C@H](C)NC(=O)[C@H](Cc2c[nH]c3ccccc23)NC(=O)[C@H](Cc2ccc(OP(=O)(O)O)cc2)NC(=O)[C@H](CCC(=O)O)NC1=O)[C@@H](C)O` [compound 615] (Ac-LTF[R8]E[pY]WAQL[S5]AAAAA[dA]-NH2; staple 4-11), the inhibition constant Ki in experiment [1] (Ki (MDMX)) and in experiment [2] (Ki (MDM2)) was less than 0.01 µM in each case.
As for `CC(C)C[C@H](NC(=O)CCNC(=O)c1ccc2c(c1)C(=O)OC21c2ccc(N(C)C)cc2Oc2cc(N(C)C)ccc21)C(=O)N[C@H](C(=O)N[C@@H](C)C(=O)N[C@]1(C)CCCCCCC=CCCC[C@@](C)(C(=O)N[C@@H](CO)C(=O)N[C@@H](C)C(=O)N[C@@H](C)C(N)=O)NC(=O)[C@H](CC2CCC2)NC(=O)[C@H](CCC(N)=O)NC(=O)[C@H](C)NC(=O)[C@H](Cc2c[nH]c3ccccc23)NC(=O)[C@H](Cc2ccc(O)cc2)NC(=O)[C@H](CCC(=O)O)NC1=O)[C@@H](C)O` [compound 687] ({5TAMRA-βAla}-LTA[R8]EYWAQ[Cba][S5]SAA-NH2; staple 4-11), the Ki in experiment [1] (read-out: Ki (MDMX)) and in experiment [2] (read-out: Ki (MDM2)) was 0.1 to 1 µM throughout.
In the case of `CC(=O)N[C@@H](C(=O)N[C@]1(C)CCCC=CCCC[C@](C)(C(=O)N[C@H](Cc2ccc(C(F)(F)F)cc2)C(=O)N[C@H](CCC(=O)O)C(=O)N[C@H](CCCCN)C(=O)N[C@H](CC(C)C)C(=O)N[C@H](CC(C)C)C(=O)N[C@H](CCCNC(=N)N)C(N)=O)NC(=O)[C@@H](C)NC(=O)[C@@H](Cc2ccc(O)cc2)NC(=O)[C@@H](Cc2c[nH]c3ccccc23)NC1=O)[C@H](C)O` [compound 752] (Ac-[dT][R5][dW][dY][dA][R5][dPhe(4-CF3)][dE][dK][dL][dL][dR]-NH2; staple 2-6), the IC50 was greater than 1 µM in experiment [1] and 0.1 to 1 µM in experiment [2].
The like results for `CC(=O)N[C@@H](C(=O)N[C@H](C)C(=O)N[C@H](Cc1c[nH]c2ccccc12)C(=O)N[C@H](Cc1ccc(O)cc1)C(=O)N[C@]1(C)CCCC=CCCC[C@](C)(C(=O)N[C@H](CC(C)C)C(=O)N[C@H](CC(C)C)C(=O)N[C@H](CCCNC(=N)N)C(N)=O)NC(=O)[C@@H](CCC(=O)O)NC(=O)[C@@H](Cc2ccc(C(F)(F)F)cc2)NC(=O)[C@@H](CC(N)=O)NC1=O)[C@H](C)O` [compound 753] (Ac-[dT][dA][dW][dY][R5][dN][dPhe(4-CF3)][dE][R5][dL][dL][dR]-NH2; staple 5-9) were, in that order, greater than 1 µM and 0.01 to 0.1 µM.
